Reference: PMC12728982, “Multichiral Half-Sandwich Ru(II) and Os(II) Anticancer Complexes Containing a Glutathione Synthesis Inhibitor” (Organometallics, 2025)
Entries after “also recorded” stand apart in the source; their conditions may differ.

Columns and labels:
Experiment in all cases: Antiproliferative activity, SRB assay
Format in all cases: cell-based, human
[1] = test system: MRC-5 normal lung fibroblasts
Procedure: (§1) The antiproliferative activity against human A549 lung, IGROV-1 ovarian, and HeLa cervical cancer cell lines and MRC5 normal lung fibroblasts was determined by the sulforhodamine B (SRB) assay. […] IGROV-1 is known to be cisplatin-sensitive and subject to hypermutation.
(§2) 2.8 Mammalian cell culture
(§3) The human ovarian cancer cell line, IGROV-1; the human cervical cancer cell line, HeLa; the human […]; and the human non-cancerous lung fibroblast cell line, MRC5 were cultured in DMEM supplemented with 10% FBS and 100 units/mL of penicillin and 100 µg/mL of streptomycin (1x pen/strep). All cell lines were incubated at 310 K with 5% CO2 and 95% humidity for routine maintenance and during drug treatment.
(§4) 2.9 Sulforhodamine (SRB) cytotoxicity assay
(§5) Cells were seeded at 5 × 10^3 cells per well and incubated at 310 K for 48 h. Stock solutions (200 µM) of the complexes were prepared by dissolving the compound in 5% (v/v) DMSO followed by dilution with DMEM and serial dilutions with DMEM were prepared (0.1 µM-200 The cells were exposed to the drug for 24 h. The drug was then removed, and cells were allowed to recover for 72 h, in drug-free media. Cell viability was then determined by the SRB colorimetric assay. The solubilised dye absorbance was analysed on a microplate reader (Thermo Scientific Multiskan FC with Scanit software 4.1) at 470 nm. Data were normalized using Microsoft Excel, and dose-response curves fitted using Origin 2016. The IC50 values

[2] = test system: A549 lung carcinoma cells
Procedure: as §1, §2, §3, §4, §5

[3] = test system: IGROV-1 ovarian carcinoma cells
Procedure: as §1, §2, §3, §4, §5

Substance: [(p-cymene)Os(L-BSO)Cl] [Os-LBSO]
- Activity toward normal lung cells ([1]; MRC-5, SRB): highly active; also recorded: some activity
- IC50 ([1]; MRC-5, SRB assay, 24 h treatment, 72 h recovery): 11.8 ± 0.6 µM
- Activity toward lung cancer cells ([2]; A549, SRB): inactive
- IC50 ([2]; A549, SRB assay, 24 h treatment, 72 h recovery): > 200 µM
- Activity against IGROV-1 ([3]; IGROV-1, SRB): active
- IC50 ([3]; IGROV-1, SRB assay, 24 h treatment, 72 h recovery): 14.6 ± 0.5 µM
